Marks after values point to notes of the source that are not given here.
Experiments:
MRSA = assay: Phase 2 CSSSI study, clinical outcome by organism: MRSA; type: in vivo, Staphylococcus aureus
Description: (§1) A randomized (1:1), controlled, evaluator-blinded Phase 2 study comparing 9-[(2,2-dimethyl-propyl amino)-methyl-minocycline (compound 1) and linezolid (Zyvox™) for the treatment of complicated skin and skin structure infections (CSSSI) was conducted. Patients with CSSSI who required initial intravenous (IV) therapy and met inclusion and exclusion criteria were enrolled at 11 centers in the US and were randomized to receive either compound 1 (100 mg Q24 h IV with 200 mg Q24 h oral step-down) or linezolid (600 mg Q12 h IV with 600 mg Q12 h oral step-down).
(§2) An infecting pathogen was defined as an isolate derived from the last positive culture taken from the site of infection under study prior to and including day 1.

Viridans Strep = assay: Phase 2 CSSSI study, clinical outcome by organism: Viridans Strep; type: in vivo, Viridans Streptococci; details: ME population
Description: as §1, §2

Enterococcus = assay: Phase 2 CSSSI study, clinical outcome by organism: Enterococcus; type: in vivo; details: ME population
Description: as §1, §2

G+ anaerobes = assay: Phase 2 CSSSI study, clinical outcome by organism: G+ anaerobes; type: in vivo, gram-positive anaerobes; details: ME population
Description: as §1, §2

Mixed GPC/GNR = assay: Phase 2 CSSSI study, clinical outcome by organism: Mixed GPC/GNR; type: in vivo; details: ME population
Description: as §1, §2

[1] = Phase 2 CSSSI study, safety and adverse events by patient; type: in vivo, human
Description: as §1
(§3) At each of the four structured evaluations, the blinded evaluator assessed the subject, with particular attention to scoring the findings at the primary site of infection and obtaining cultures. Clinical and microbiologic outcomes were determined using these assessments. Primary evaluation criteria was safety and tolerability compared with linezolid. Secondary evaluation criteria was efficacy of compound 1 compared to linezolid, as well as pharmacokinetics of compound 1.
In addition, the patients in the study were monitored for adverse events (AE). An adverse event is any untoward medical occurrence temporally associated with the use of a medical product in a subject, whether or not the event is considered causally related to the medical product.

[2] = Phase 2 CSSSI study, safety: ALT level; type: in vivo, human
Description: as §1, §3

[3] = Phase 2 CSSSI study, subject disposition (discontinuations); type: in vivo, human; details: ITT population
Description: as §1
All subjects had four structured evaluations: at Enrollment (Baseline); at End of IV Treatment; at End of Treatment; and at 10 to 17 days after last dose of treatment (test of cure (TOC) evaluation). In addition, the blinded investigator saw each subject daily while they were on IV therapy and at least every 3 days while receiving oral treatment to determine whether to continue current treatment, switch from IV to oral therapy, or discontinue treatment.

[4] = probably or possibly drug-related by blinded evaluator
[5] = EOT, ALT abnormal at enrollment
[6] = EOT, ALT within normal limits at enrollment
[7] = TOC, ALT abnormal at enrollment
[8] = TOC, ALT within normal limits at enrollment
[9] = max on treatment, ALT abnormal at enrollment
[10] = max on treatment, ALT within normal limits at enrollment

CC(=O)NCC1CN(c2ccc(N3CCOCC3)c(F)c2)C(=O)O1 (stereo not drawn) [Linezolid, N-[[3-(3-fluoro-4-morpholinophenyl)-2-oxooxazolidin-5-yl]methyl]acetamide, reference compound]
Clinical outcome Failure (number) (MRSA; ME population, MRSA): 2
Clinical outcome Success (number) (MRSA; ME population, MRSA): 30
clinical success rate against MRSA (MRSA; as determined in the trials of the Exemplification): 93%
Clinical outcome Failure (number) (Viridans Strep): 0
Clinical outcome Success (number) (Viridans Strep): 6
Clinical outcome Failure (number) (Enterococcus): 0
Clinical outcome Success (number) (Enterococcus): 3
Clinical outcome Failure (number) (G+ anaerobes): 0
Clinical outcome Success (number) (G+ anaerobes): 3
Clinical outcome Failure (number) (Mixed GPC/GNR): 0
Clinical outcome Success (number) (Mixed GPC/GNR): 10
Adverse events by patient, Cardiac, Drug Related [1, 4]: 3
Adverse events by patient, Ear, Drug Related [1, 4]: 1
Adverse events by patient, Eye, Drug Related [1, 4]: 1
Adverse events by patient, GI, Drug Related [1, 4]: 13^b
Adverse events by patient, General, Drug Related [1, 4]: 4
Adverse events by patient, Heme, Drug Related [1, 4]: 0
Adverse events by patient, Infection, Drug Related [1, 4]: 1
Adverse events by patient, Injury, Drug Related [1, 4]: 1
Adverse events by patient, Investigations, Drug Related [1, 4]: 8
Adverse events by patient, Metabolism, Drug Related [1, 4]: 2
Adverse events by patient, Musculoskeletal, Drug Related [1, 4]: 0
Adverse events by patient, Neurologic, Drug Related [1, 4]: 7
Adverse events by patient, Psych, Drug Related [1, 4]: 3
Adverse events by patient, Renal, Drug Related [1, 4]: 0
Adverse events by patient, Reproductive, Drug Related [1, 4]: 0
Adverse events by patient, Respiratory, Drug Related [1, 4]: 0
Adverse events by patient, Skin, Drug Related [1, 4]: 6^c
Adverse events by patient, Vascular, Drug Related [1, 4]: 1
Adverse events by patient, GI, Drug Related ([1]; probably or possibly drug-related by blinded evaluator, listed as linezolid): 13
Adverse events by patient, Cardiac, Total ([1]; safety population): 4
Adverse events by patient, Ear, Total ([1]; safety population): 2
Adverse events by patient, Eye, Total ([1]; safety population): 1
Adverse events by patient, GI, Total ([1]; safety population): 21
Adverse events by patient, General, Total ([1]; safety population): 8
Adverse events by patient, Heme, Total ([1]; safety population): 2
Adverse events by patient, Infection, Total ([1]; safety population): 9
Adverse events by patient, Injury, Total ([1]; safety population): 1
Adverse events by patient, Investigations, Total ([1]; safety population): 11
Adverse events by patient, Metabolism, Total ([1]; safety population): 7
Adverse events by patient, Musculoskeletal, Total ([1]; safety population): 2
Adverse events by patient, Neurologic, Total ([1]; safety population): 15
Adverse events by patient, Psych, Total ([1]; safety population): 6
Adverse events by patient, Renal, Total ([1]; safety population): 2
Adverse events by patient, Reproductive, Total ([1]; safety population): 1
Adverse events by patient, Respiratory, Total ([1]; safety population): 2
Adverse events by patient, Skin, Total ([1]; safety population): 10
Adverse events by patient, Vascular, Total ([1]; safety population): 1
Patients with no adverse event (None), % ([1]; safety population): 49.1%
Patients with no adverse event (None), number ([1]; safety population): 53
Total Patients with 1 or more AE, % ([1]; safety population): 50.9%
Total Patients with 1 or more AE, number ([1]; safety population): 55
ALT Increase: >2x ULN and 2x baseline (number) [2, 5]: 0
ALT NS: >ULN and <2x baseline (%) [2, 5]: (63.6%)
ALT NS: >ULN and <2x baseline (number) [2, 5]: 7
ALT Within normal limits (%) [2, 5]: (36.4%)
ALT Within normal limits (number) [2, 5]: 4
ALT 1x-2x (%) [2, 6]: (10.0%)
ALT 1x-2x (number) [2, 6]: 9
ALT 2x-3x (%) [2, 6]: (1.1%)
ALT 2x-3x (number) [2, 6]: 1
ALT >3x (%) [2, 6]: (1.1%)
ALT >3x (number) [2, 6]: 1
ALT Within normal limits (%) [2, 6]: (87.8%)
ALT Within normal limits (number) [2, 6]: 79
ALT Increase: >2x ULN and 2x baseline (%) [2, 7]: (8.3%)
ALT Increase: >2x ULN and 2x baseline (number) [2, 7]: 1
ALT NS: >ULN and <2x baseline (%) [2, 7]: (50.0%)
ALT NS: >ULN and <2x baseline (number) [2, 7]: 6
ALT Within normal limits (%) [2, 7]: (41.7%)
ALT Within normal limits (number) [2, 7]: 5
ALT 1x-2x (%) [2, 8]: (5.1%)
ALT 1x-2x (number) [2, 8]: 4
ALT 2x-3x (number) [2, 8]: 0
ALT >3x (number) [2, 8]: 0
ALT Within normal limits (%) [2, 8]: (94.9%)
ALT Within normal limits (number) [2, 8]: 75
ALT Increase: >2x ULN and 2x baseline (%) [2, 9]: (16.7%)
ALT Increase: >2x ULN and 2x baseline (number) [2, 9]: 2
ALT NS: >ULN and <2x baseline (%) [2, 9]: (66.7%)
ALT NS: >ULN and <2x baseline (number) [2, 9]: 8
ALT Within normal limits (%) [2, 9]: (16.7%)
ALT Within normal limits (number) [2, 9]: 2
ALT 1x-2x (%) [2, 10]: (14.7%)
ALT 1x-2x (number) [2, 10]: 14
ALT 2x-3x (%) [2, 10]: (5.3%)
ALT 2x-3x (number) [2, 10]: 5
ALT >3x (%) [2, 10]: (1.1%)
ALT >3x (number) [2, 10]: 1
ALT Within normal limits (%) [2, 10]: (78.9%)
ALT Within normal limits (number) [2, 10]: 75
Premature Discontinuation (% of subjects) [3]: (7.4%)
Premature Discontinuation (number of subjects) [3]: 8
Premature Discontinuation due to Adverse Event (% of subjects) [3]: (1.9%)
Premature Discontinuation due to Adverse Event (number of subjects) [3]: 2
Premature Discontinuation due to Treatment Failure (number of subjects) [3]: 0
